Patent US7635663B2, “Method for thinning fruit blossoms using eugenol” (The United States of America as represented by the …, priority 2006, dated 2009)
Like-named read-outs stand apart in the source and are kept apart here.

Experiments:
[1] = tested on: peach trees (Prunus persica L. 'Redhaven' on Lovell rootstock); format: in vivo; conditions: for Fruit (1 to 2 cm in diameter) one month after application / Fruit (2 to 4 cm in diameter) two months after application / Flowers without wilted pistils and stamens 24 hr after application: of 100 flowers; for Flowers without wilted pistils and stamens 24 hr after application: spring 2003
Experimental: Materials and methods: Initial work determined general foliar and blossom injury response to increasing rates of eugenol in apple and peach trees. Eugenol was prepared as a suspension in water and applied with a hand-held sprayer (Sure Shot, Milwaukee Sprayer Mfg. Co., Inc., Milwaukee, Wis.) to flowers to the point of drip. Spray was applied to peach trees (Prunus persica L. ‘Redhaven’ on Lovell rootstock) at 60 psi when air temperature was approximately 21° C. with sunny conditions. Naturally-derived eugenol, extracted from cinnamon (Cinnamomum zeylanicum) or clove (Syzgium aromaticum), was obtained from Citrus and Allied (Floral Park, N.Y.). Peach tree flowers were approximately 60% in bloom when eugenol was applied on 14 Apr. 2003. One tree received one application of each concentration of eugenol. One-hundred flowers per tree, uniformly distributed throughout the crown were selected for measurement 24 hr, 1 mo, and 2 mos after application. At 24 hr, flowers with wilted pistils and stamens were considered killed and nonviable. Surviving fruit were counted 1 and 2 mo after application. Peaches were harvested on 7 Aug. 2003 from each treated tree. Total fruit number and weight and size of individual fruit were measured.

[2] = tested on: apple trees (Malus domestica 'Ace Spur Red Delicious' on M.7 rootstock); format: in vivo; conditions: for Flowers without wilted pistils and stamens 24 hr after application / Fruit (1 to 2 cm in diameter) one month after application / Fruit (2 to 4 cm in diameter) two months after application: Apple; for Flowers without wilted pistils and stamens 24 hr after application: of 100 flower clusters, spring 2003; for Fruit (1 to 2 cm in diameter) one month after application / Fruit (2 to 4 cm in diameter) two months after application: same 100 flower clusters, five fruit each
Experimental: Eugenol was applied to apple trees (Malus domestica ‘Ace Spur Red Delicious’ on M.7 rootstock) on 23 Apr. 2003 when “king” blossoms had been fully opened and subtending flowers were just opening. Temperatures were 18° C. under partly sunny conditions. One-hundred five-cluster groups of flowers were evaluated for damage 24 hr after application. Surviving fruit from the original clusters were counted 1 and 2 mo after application. Apples were harvested on 17 Sep. 2003 from each treated tree. Total fruit number and weight and size of individual fruit were measured.

[3] = tested on: 'Redhaven' on Lovell peach; assay: Peach blossom thinning with different thinning agents, mist blower back pack sprayer, 2004; format: in vivo, Prunus persica
Experimental: In 2004, fewer concentrations of eugenol were tested in comparison with other chemical blossom thinners in apple and peach. […] 2004 with a pressurized power mist blower back pack sprayer. Peach trees had been planted in April 1997 with a 3-m spacing between trees. Treatments included eugenol and Matran® each applied at 1, 2, 4, and 8%. […] Each tree was an experimental unit, buffer trees surrounded each treated tree, and there were 5 replications arranged in a completely randomized design.
Response variables included (1) percent flowers wilted 24 hr after application based on a 100 flower (peach) or flower cluster (apple) sample per tree; (2) number apple fruit retained after June drop from the same 100-flower sample per tree; (3) number and weight of fruit per tree at harvest by size category; (4) visual estimation from two people of foliar and shoot damage. Four branches per tree, each with 25 flowers, were measured; two branches opposite each other were perpendicular to the drive alley and the other two branches were opposite each other and parallel to the drive alley.

[4] = tested on: 'Bisbee Spur Delicious' on MM.111 apple trees; assay: Apple blossom thinning with eugenol and ATS, 2004; format: in vivo, Malus domestica; conditions: for Average fruit weight (g) / Total yield per tree (no.) / Flower burn back (% of flowers injured): Apple 'Bisbee'; for Flower burn back (% of flowers injured): April 2004
Experimental: Each tree was an experimental unit, surrounded by buffer trees, with 4 single tree replications arranged in a completely randomized design.
Four branches per tree, each with 25 flowers, were measured; two branches opposite each other were perpendicular to the drive alley and the other two branches were opposite each other and parallel to the drive alley.

[5] = tested on: 'Gala' on M.26 apple trees; format: in vivo, Malus domestica; conditions: for Fruit (no./tree) / Fruit weight (kg/tree) / Individual fruit weight: Apple 'Gala', 2005
Experimental: On Apr. […] Treatments were arranged in 4-tree plots and there were 4 blocks containing all 8 treatments. Data was collected from 2 trees per plot, so each treatment was an average of 8 trees. Data was analyzed by analysis of variance and Duncan's Multiple Range Test.

SMILES: C=CCc1ccc(O)c(OC)c1 [Eugenol, 2-methoxy-4-(2-propenyl)phenol]
- Concentration at which flower injury was apparent ([1]; Peach flowers, 2003): 1.5%
- Fruit (1 to 2 cm in diameter) one month after application ([1]; Peach, 0.5% active ingredient): 64%
- Fruit (2 to 4 cm in diameter) two months after application ([1]; Peach, 0.5% active ingredient): 40%
- Flowers without wilted pistils and stamens 24 hr after application ([1]; Peach, 0.5% active ingredient): 100%
- Fruit (1 to 2 cm in diameter) one month after application ([1]; Peach, 1% active ingredient): 28%
- Fruit (2 to 4 cm in diameter) two months after application ([1]; Peach, 1% active ingredient): 16%
- Flowers without wilted pistils and stamens 24 hr after application ([1]; Peach, 1% active ingredient): 100%
- Fruit (1 to 2 cm in diameter) one month after application ([1]; Peach, 1.5% active ingredient): 36%
- Fruit (2 to 4 cm in diameter) two months after application ([1]; Peach, 1.5% active ingredient): 16%
- Flowers without wilted pistils and stamens 24 hr after application ([1]; Peach, 1.5% active ingredient): 95%
- Fruit (1 to 2 cm in diameter) one month after application ([1]; Peach, 2% active ingredient): 20%
- Fruit (2 to 4 cm in diameter) two months after application ([1]; Peach, 2% active ingredient): 6%
- Flowers without wilted pistils and stamens 24 hr after application ([1]; Peach, 2% active ingredient): 85%
- Fruit (1 to 2 cm in diameter) one month after application ([1]; Peach, 4% active ingredient): 20%
- Fruit (2 to 4 cm in diameter) two months after application ([1]; Peach, 4% active ingredient): 5%
- Flowers without wilted pistils and stamens 24 hr after application ([1]; Peach, 4% active ingredient): 62%
- Fruit (1 to 2 cm in diameter) one month after application ([1]; Peach, 6% active ingredient): 22%
- Fruit (2 to 4 cm in diameter) two months after application ([1]; Peach, 6% active ingredient): 5%
- Flowers without wilted pistils and stamens 24 hr after application ([1]; Peach, 6% active ingredient): 50%
- Fruit (1 to 2 cm in diameter) one month after application ([1]; Peach, 8% active ingredient): 17%
- Fruit (2 to 4 cm in diameter) two months after application ([1]; Peach, 8% active ingredient): 3%
- Flowers without wilted pistils and stamens 24 hr after application ([1]; Peach, 8% active ingredient): 39%
- Fruit (1 to 2 cm in diameter) one month after application ([1]; Peach, 10% active ingredient): 0%
- Fruit (2 to 4 cm in diameter) two months after application ([1]; Peach, 10% active ingredient): 5%
- Flowers without wilted pistils and stamens 24 hr after application ([1]; Peach, 10% active ingredient): 31%
- Time after application until peach flowers began to appear bleached and leaf tips developed necrotic lesions ([1]; Peach, 2003): ≤ 1 h
- Fruit or leaf injury ([1]; in vivo): No fruit or leaf injury
- Phytotoxicity by 2 months after application ([1]; in vivo): no sign of eugenol-induced phytotoxicity
- Concentration at which flower injury was apparent ([2]; Apple flowers, 2003): 1.5%
- Flowers without wilted pistils and stamens 24 hr after application ([2]; 0.5% active ingredient): 100%
- Fruit (1 to 2 cm in diameter) one month after application ([2]; 0.5% active ingredient): 18%
- Fruit (2 to 4 cm in diameter) two months after application ([2]; 0.5% active ingredient): 16%
- Flowers without wilted pistils and stamens 24 hr after application ([2]; 1% active ingredient): 100%
- Fruit (1 to 2 cm in diameter) one month after application ([2]; 1% active ingredient): 9%
- Fruit (2 to 4 cm in diameter) two months after application ([2]; 1% active ingredient): 17%
- Flowers without wilted pistils and stamens 24 hr after application ([2]; 1.5% active ingredient): 93%
- Fruit (1 to 2 cm in diameter) one month after application ([2]; 1.5% active ingredient): 10%
- Fruit (2 to 4 cm in diameter) two months after application ([2]; 1.5% active ingredient): 12%
- Flowers without wilted pistils and stamens 24 hr after application ([2]; 2% active ingredient): 93%
- Fruit (1 to 2 cm in diameter) one month after application ([2]; 2% active ingredient): 10%
- Fruit (2 to 4 cm in diameter) two months after application ([2]; 2% active ingredient): 10%
- Flowers without wilted pistils and stamens 24 hr after application ([2]; 4% active ingredient): 68%
- Fruit (1 to 2 cm in diameter) one month after application ([2]; 4% active ingredient): 8%
- Fruit (2 to 4 cm in diameter) two months after application ([2]; 4% active ingredient): 6%
- Flowers without wilted pistils and stamens 24 hr after application ([2]; 6% active ingredient): 43%
- Fruit (1 to 2 cm in diameter) one month after application ([2]; 6% active ingredient): 1%
- Fruit (2 to 4 cm in diameter) two months after application ([2]; 6% active ingredient): 2%
- Flowers without wilted pistils and stamens 24 hr after application ([2]; 8% active ingredient): 32%
- Fruit (1 to 2 cm in diameter) one month after application ([2]; 8% active ingredient): 2%
- Fruit (2 to 4 cm in diameter) two months after application ([2]; 8% active ingredient): 2%
- Flowers without wilted pistils and stamens 24 hr after application ([2]; 10% active ingredient): 27%
- Fruit (1 to 2 cm in diameter) one month after application ([2]; 10% active ingredient): 1%
- Fruit (2 to 4 cm in diameter) two months after application ([2]; 10% active ingredient): 0%
- Fruit or leaf injury ([2]; in vivo): no fruit or leaf injury
- Phytotoxicity by 2 months after application ([2]; in vivo): no sign of eugenol-induced phytotoxicity
- Rates at which fruit number was reduced [3]; 2004: higher than 2%
- Average fruit weight (g) ([3]; rate 1%, 2004): 76 cde g
- Total yield per tree (no.) ([3]; rate 1%, 2004): 684 a no.
- Flower burn back (% of flowers injured) ([3]; rate 1%, April 2004): 15 b^a %
- Average fruit weight (g) ([3]; rate 2%, 2004): 87 bcde g
- Total yield per tree (no.) ([3]; rate 2%, 2004): 384 bc no.
- Flower burn back (% of flowers injured) ([3]; rate 2%, April 2004): 27 ab %
- Flower burn back (% of flowers injured) ([3]; rate 2%, April 2004, listed as eugenol): 27%
- Average fruit weight (g) ([3]; rate 4%, 2004): 103 abc g
- Total yield per tree (no.) ([3]; rate 4%, 2004): 470 abc no.
- Flower burn back (% of flowers injured) ([3]; rate 4%, April 2004): 39 ab %
- Flower burn back (% of flowers injured) ([3]; rate 4%, April 2004, listed as eugenol): 49%
- Average fruit weight (g) ([3]; rate 8%, 2004): 112 ab g
- Total yield per tree (no.) ([3]; rate 8%, 2004): 404 bc no.
- Flower burn back (% of flowers injured) ([3]; rate 8%, April 2004): 49 a %
- Flower burn back (% of flowers injured) ([3]; rate 8%, April 2004, listed as eugenol): approximately 50%
- Average fruit weight (g) ([4]; rate 2%, 2004): 152 a g
- Total yield per tree (no.) ([4]; rate 2%, 2004): 543 a no.
- Flower burn back (% of flowers injured) ([4]; rate 2%): 45 a %
- Average fruit weight (g) ([4]; rate 4%, 2004): 155 a g
- Total yield per tree (no.) ([4]; rate 4%, 2004): 462 a no.
- Flower burn back (% of flowers injured) ([4]; rate 4%): 50 a %
- Average fruit weight (g) ([4]; rate 6%, 2004): 167 a g
- Total yield per tree (no.) ([4]; rate 6%, 2004): 443 a no.
- Flower burn back (% of flowers injured) ([4]; rate 6%): 53 a %
- Effect on yield ([4]; Apple, 2004): did not affect yield
- Fruit (no./tree) ([5]; thinner applied at 4%): 137 no./tree
- Fruit weight (kg/tree) ([5]; thinner applied at 4%): 20.5 kg/tree
- Individual fruit weight ([5]; thinner applied at 4%): 148 g
- Fruit (no./tree) ([5]; thinner applied at 6%): 86 no./tree
- Fruit weight (kg/tree) ([5]; thinner applied at 6%): 10.2 kg/tree
- Individual fruit weight ([5]; thinner applied at 6%): 129 g
- Leaf injury ([5]; in vivo): injury was superficial, did not persist, and was not observed within four weeks of application
